Measured values published in ChEMBL document CHEMBL1909294, “Translating clinical findings into knowledge in drug safety evaluation--drug induced liver injury prediction system (DILIps)” (PLoS Comput Biol, 2011).

What was measured:
Hepatotoxicity [1] = system: Hepatotoxicity;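 as to HepSE Combined Scores: combined hepatic side effect score as listed in the training data of the Drug Induced Liver Injury Prediction System (DILIps)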;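 as to HepSE elevated liver function tests: hepatic side effect score for raised liver function tests, as recorded in the DILIps training set used for predicting drug-induced liver injury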; as to HepSE hepatic failure: call rule not given here;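 as to HepSE hepatomegaly: hepatic side effect score for hepatomegaly, taken from the training set of the DILIps drug-induced liver injury prediction system; call rule not given here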;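 as to HepSE jaundice: Jaundice-related hepatic side-effect score drawn from the training data of the DILIps (drug-induced liver injury prediction system); call rule not given here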; as to HepSE liver disease: call rule not given here;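 as to HepSE liver function tests abnormal: hepatic side effect score taken from the DILIps (drug-induced liver injury prediction system) training data, here covering abnormal liver function test findings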
Hepatotoxicity [2] = system: Hepatotoxicity; remark: listed apart in the source;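 as to HepSE Combined Scores: combined hepatic side effect score as listed in the training data of the Drug Induced Liver Injury Prediction System (DILIps)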;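 as to HepSE elevated liver function tests: hepatic side effect score for raised liver function tests, as recorded in the DILIps training set used for predicting drug-induced liver injury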; as to HepSE hepatic failure: call rule not given here;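 as to HepSE hepatomegaly: hepatic side effect score for hepatomegaly, taken from the training set of the DILIps drug-induced liver injury prediction system; call rule not given here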;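 as to HepSE jaundice: Jaundice-related hepatic side-effect score drawn from the training data of the DILIps (drug-induced liver injury prediction system); call rule not given here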; as to HepSE liver disease: call rule not given here;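 as to HepSE liver function tests abnormal: hepatic side effect score taken from the DILIps (drug-induced liver injury prediction system) training data, here covering abnormal liver function test findings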
Hepatotoxicity [3] = system: Hepatotoxicity; remark: listed apart in the source;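 as to HepSE Combined Scores: combined hepatic side effect score as listed in the training data of the Drug Induced Liver Injury Prediction System (DILIps)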;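 as to HepSE elevated liver function tests: hepatic side effect score for raised liver function tests, as recorded in the DILIps training set used for predicting drug-induced liver injury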; as to HepSE hepatic failure: call rule not given here;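 as to HepSE hepatomegaly: hepatic side effect score for hepatomegaly, taken from the training set of the DILIps drug-induced liver injury prediction system; call rule not given here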;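 as to HepSE jaundice: Jaundice-related hepatic side-effect score drawn from the training data of the DILIps (drug-induced liver injury prediction system); call rule not given here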; as to HepSE liver disease: call rule not given here;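 as to HepSE liver function tests abnormal: hepatic side effect score taken from the DILIps (drug-induced liver injury prediction system) training data, here covering abnormal liver function test findings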
Hepatotoxicity [4] = system: Hepatotoxicity; remark: listed apart in the source;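 as to HepSE Combined Scores: combined hepatic side effect score as listed in the training data of the Drug Induced Liver Injury Prediction System (DILIps)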;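 as to HepSE elevated liver function tests: hepatic side effect score for raised liver function tests, as recorded in the DILIps training set used for predicting drug-induced liver injury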; as to HepSE hepatic failure: call rule not given here;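 as to HepSE jaundice: Jaundice-related hepatic side-effect score drawn from the training data of the DILIps (drug-induced liver injury prediction system); call rule not given here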; as to HepSE liver disease: call rule not given here;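 as to HepSE liver function tests abnormal: hepatic side effect score taken from the DILIps (drug-induced liver injury prediction system) training data, here covering abnormal liver function test findings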
Hepatotoxicity [5] = system: Hepatotoxicity; remark: listed apart in the source; as to HepSE hepatic failure: call rule not given here; as to HepSE liver disease: call rule not given here
Hepatotoxicity [6] = system: Hepatotoxicity; remark: listed apart in the source; as to HepSE hepatic failure: call rule not given here; as to HepSE liver disease: call rule not given here
Hepatotoxicity [7] = system: Hepatotoxicity; remark: listed apart in the source
Hepatotoxicity [8] = system: Hepatotoxicity; remark: listed apart in the source
Hepatotoxicity [9] = system: Hepatotoxicity; remark: listed apart in the source
Hepatotoxicity [10] = system: Hepatotoxicity; remark: listed apart in the source
Hepatotoxicity [11] = system: Hepatotoxicity; remark: listed apart in the source
Hepatotoxicity [12] = system: Hepatotoxicity; remark: listed apart in the source
Hepatotoxicity [13] = system: Hepatotoxicity; remark: listed apart in the source
Hepatotoxicity [14] = system: Hepatotoxicity; remark: listed apart in the source

Clc1cccc(Cl)c1N=C1NCCN1 [CLONIDINE]
1: HepSE_Combined Scores (Hepatotoxicity [3]; Liver) | HepSE_hepatitis (Hepatotoxicity [9]; Liver)
0: HepSE_hepatic failure (Hepatotoxicity [1]; Liver) | HepSE_liver function tests abnormal (Hepatotoxicity [2]; Liver) | HepSE_liver disease (Hepatotoxicity [4]; Liver) | HepSE_jaundice (Hepatotoxicity [5]; Liver) | HepSE_elevated liver function tests (Hepatotoxicity [6]; Liver) | HepSE_hepatomegaly (Hepatotoxicity [7]; Liver) | HepSE_hepatic necrosis (Hepatotoxicity [8]; Liver) | HepSE_cholecystitis (Hepatotoxicity [10]; Liver) | HepSE_bilirubinemia (Hepatotoxicity [11]; Liver) | HepSE_liver fatty (Hepatotoxicity [12]; Liver) | HepSE_cholelithiasis (Hepatotoxicity [13]; Liver) | HepSE_cirrhosis (Hepatotoxicity [14]; Liver)

COC(=O)[C@H](c1ccccc1Cl)N1CCc2sccc2C1 [CLOPIDOGREL]
4: HepSE_Combined Scores (Hepatotoxicity [3]; Liver)
0: HepSE_liver function tests abnormal (Hepatotoxicity [2]; Liver) | HepSE_liver disease (Hepatotoxicity [4]; Liver) | HepSE_jaundice (Hepatotoxicity [5]; Liver) | HepSE_elevated liver function tests (Hepatotoxicity [6]; Liver) | HepSE_hepatomegaly (Hepatotoxicity [7]; Liver) | HepSE_hepatic necrosis (Hepatotoxicity [8]; Liver) | HepSE_cholecystitis (Hepatotoxicity [10]; Liver) | HepSE_cholelithiasis (Hepatotoxicity [13]; Liver) | HepSE_cirrhosis (Hepatotoxicity [14]; Liver)
1: HepSE_hepatic failure (Hepatotoxicity [1]; Liver) | HepSE_hepatitis (Hepatotoxicity [9]; Liver) | HepSE_bilirubinemia (Hepatotoxicity [11]; Liver) | HepSE_liver fatty (Hepatotoxicity [12]; Liver)

Clc1ccccc1C(c1ccccc1)(c1ccccc1)n1ccnc1 [CLOTRIMAZOLE]
0: HepSE_hepatic failure (Hepatotoxicity [1]) | HepSE_liver disease (Hepatotoxicity [4]) | HepSE_jaundice (Hepatotoxicity [5]) | HepSE_elevated liver function tests (Hepatotoxicity [6]) | HepSE_hepatomegaly (Hepatotoxicity [7]) | HepSE_hepatic necrosis (Hepatotoxicity [8]) | HepSE_hepatitis (Hepatotoxicity [9]) | HepSE_cholecystitis (Hepatotoxicity [10]) | HepSE_bilirubinemia (Hepatotoxicity [11]) | HepSE_liver fatty (Hepatotoxicity [12]) | HepSE_cholelithiasis (Hepatotoxicity [13]) | HepSE_cirrhosis (Hepatotoxicity [14])
1: HepSE_liver function tests abnormal (Hepatotoxicity [2]) | HepSE_Combined Scores (Hepatotoxicity [3])

CN1CCN(C2=Nc3cc(Cl)ccc3Nc3ccccc32)CC1 [CLOZAPINE]
1: HepSE_jaundice (Hepatotoxicity [5]) | HepSE_hepatitis (Hepatotoxicity [9])
2: HepSE_Combined Scores (Hepatotoxicity [3])
0: HepSE_hepatic failure (Hepatotoxicity [1]) | HepSE_liver function tests abnormal (Hepatotoxicity [2]) | HepSE_liver disease (Hepatotoxicity [4]) | HepSE_elevated liver function tests (Hepatotoxicity [6]) | HepSE_hepatomegaly (Hepatotoxicity [7]) | HepSE_hepatic necrosis (Hepatotoxicity [8]) | HepSE_cholecystitis (Hepatotoxicity [10]) | HepSE_bilirubinemia (Hepatotoxicity [11]) | HepSE_liver fatty (Hepatotoxicity [12]) | HepSE_cholelithiasis (Hepatotoxicity [13]) | HepSE_cirrhosis (Hepatotoxicity [14])

C[C@]12CCC(=O)C=C1CC[C@@H]1[C@@H]2C(=O)C[C@@]2(C)[C@H]1CC[C@]2(O)C(=O)CO [CORTISONE]
0: HepSE_hepatic failure (Hepatotoxicity [1]) | HepSE_liver function tests abnormal (Hepatotoxicity [2]) | HepSE_Combined Scores (Hepatotoxicity [3]) | HepSE_liver disease (Hepatotoxicity [4]) | HepSE_jaundice (Hepatotoxicity [5]) | HepSE_elevated liver function tests (Hepatotoxicity [6]) | HepSE_hepatomegaly (Hepatotoxicity [7]) | HepSE_hepatic necrosis (Hepatotoxicity [8]) | HepSE_hepatitis (Hepatotoxicity [9]) | HepSE_cholecystitis (Hepatotoxicity [10]) | HepSE_bilirubinemia (Hepatotoxicity [11]) | HepSE_liver fatty (Hepatotoxicity [12]) | HepSE_cholelithiasis (Hepatotoxicity [13]) | HepSE_cirrhosis (Hepatotoxicity [14])

O=C(O)c1cc(=O)c2c(OCC(O)COc3cccc4oc(C(=O)O)cc(=O)c34)cccc2o1 [CROMOLYN]
0: HepSE_hepatic failure (Hepatotoxicity [1]) | HepSE_liver function tests abnormal (Hepatotoxicity [2]) | HepSE_jaundice (Hepatotoxicity [5]) | HepSE_elevated liver function tests (Hepatotoxicity [6]) | HepSE_hepatomegaly (Hepatotoxicity [7]) | HepSE_hepatic necrosis (Hepatotoxicity [8]) | HepSE_hepatitis (Hepatotoxicity [9]) | HepSE_cholecystitis (Hepatotoxicity [10]) | HepSE_bilirubinemia (Hepatotoxicity [11]) | HepSE_liver fatty (Hepatotoxicity [12]) | HepSE_cholelithiasis (Hepatotoxicity [13]) | HepSE_cirrhosis (Hepatotoxicity [14])
1: HepSE_Combined Scores (Hepatotoxicity [3]) | HepSE_liver disease (Hepatotoxicity [4])

CN(C)CCC=C1c2ccccc2C=Cc2ccccc21 [CYCLOBENZAPRINE]
2: HepSE_Combined Scores (Hepatotoxicity [3]; Liver)
1: HepSE_jaundice (Hepatotoxicity [5]; Liver) | HepSE_hepatitis (Hepatotoxicity [9]; Liver)
0: HepSE_hepatic failure (Hepatotoxicity [1]; Liver) | HepSE_liver function tests abnormal (Hepatotoxicity [2]; Liver) | HepSE_liver disease (Hepatotoxicity [4]; Liver) | HepSE_elevated liver function tests (Hepatotoxicity [6]; Liver) | HepSE_hepatomegaly (Hepatotoxicity [7]; Liver) | HepSE_hepatic necrosis (Hepatotoxicity [8]; Liver) | HepSE_cholecystitis (Hepatotoxicity [10]; Liver) | HepSE_bilirubinemia (Hepatotoxicity [11]; Liver) | HepSE_liver fatty (Hepatotoxicity [12]; Liver) | HepSE_cholelithiasis (Hepatotoxicity [13]; Liver) | HepSE_cirrhosis (Hepatotoxicity [14]; Liver)

CN(C)CCOC(=O)C(c1ccccc1)C1(O)CCCC1 (configuration not stated) [CYCLOPENTOLATE]
0: HepSE_hepatic failure (Hepatotoxicity [1]) | HepSE_liver function tests abnormal (Hepatotoxicity [2]) | HepSE_Combined Scores (Hepatotoxicity [3]) | HepSE_liver disease (Hepatotoxicity [4]) | HepSE_jaundice (Hepatotoxicity [5]) | HepSE_elevated liver function tests (Hepatotoxicity [6]) | HepSE_hepatomegaly (Hepatotoxicity [7]) | HepSE_hepatic necrosis (Hepatotoxicity [8]) | HepSE_hepatitis (Hepatotoxicity [9]) | HepSE_cholecystitis (Hepatotoxicity [10]) | HepSE_bilirubinemia (Hepatotoxicity [11]) | HepSE_liver fatty (Hepatotoxicity [12]) | HepSE_cholelithiasis (Hepatotoxicity [13]) | HepSE_cirrhosis (Hepatotoxicity [14])

O=P1(N(CCCl)CCCl)NCCCO1 (configuration not stated) [CYCLOPHOSPHAMIDE ANHYDROUS]
0: HepSE_hepatic failure (Hepatotoxicity [1]; Liver) | HepSE_liver function tests abnormal (Hepatotoxicity [2]; Liver) | HepSE_liver disease (Hepatotoxicity [4]; Liver) | HepSE_elevated liver function tests (Hepatotoxicity [6]; Liver) | HepSE_hepatic necrosis (Hepatotoxicity [8]; Liver) | HepSE_hepatitis (Hepatotoxicity [9]; Liver) | HepSE_cholecystitis (Hepatotoxicity [10]; Liver) | HepSE_liver fatty (Hepatotoxicity [12]; Liver) | HepSE_cholelithiasis (Hepatotoxicity [13]; Liver) | HepSE_cirrhosis (Hepatotoxicity [14]; Liver)
1: HepSE_jaundice (Hepatotoxicity [5]; Liver) | HepSE_hepatomegaly (Hepatotoxicity [7]; Liver) | HepSE_bilirubinemia (Hepatotoxicity [11]; Liver)
3: HepSE_Combined Scores (Hepatotoxicity [3]; Liver)

N[C@@H]1CON=C1O [CYCLOSERINE]
1: HepSE_Combined Scores (Hepatotoxicity [3]) | HepSE_liver disease (Hepatotoxicity [4])
0: HepSE_hepatic failure (Hepatotoxicity [1]) | HepSE_liver function tests abnormal (Hepatotoxicity [2]) | HepSE_jaundice (Hepatotoxicity [5]) | HepSE_elevated liver function tests (Hepatotoxicity [6]) | HepSE_hepatomegaly (Hepatotoxicity [7]) | HepSE_hepatic necrosis (Hepatotoxicity [8]) | HepSE_hepatitis (Hepatotoxicity [9]) | HepSE_cholecystitis (Hepatotoxicity [10]) | HepSE_bilirubinemia (Hepatotoxicity [11]) | HepSE_liver fatty (Hepatotoxicity [12]) | HepSE_cholelithiasis (Hepatotoxicity [13]) | HepSE_cirrhosis (Hepatotoxicity [14])

CN1CCC(=C2c3ccccc3C=Cc3ccccc32)CC1 [CYPROHEPTADINE]
0: HepSE_liver function tests abnormal (Hepatotoxicity [2]) | HepSE_liver disease (Hepatotoxicity [4]) | HepSE_elevated liver function tests (Hepatotoxicity [6]) | HepSE_hepatomegaly (Hepatotoxicity [7]) | HepSE_hepatic necrosis (Hepatotoxicity [8]) | HepSE_cholecystitis (Hepatotoxicity [10]) | HepSE_bilirubinemia (Hepatotoxicity [11]) | HepSE_liver fatty (Hepatotoxicity [12]) | HepSE_cholelithiasis (Hepatotoxicity [13]) | HepSE_cirrhosis (Hepatotoxicity [14])
3: HepSE_Combined Scores (Hepatotoxicity [3])
1: HepSE_hepatic failure (Hepatotoxicity [1]) | HepSE_jaundice (Hepatotoxicity [5]) | HepSE_hepatitis (Hepatotoxicity [9])

CC(=O)[C@@]1(O)CC[C@H]2[C@@H]3C=C(Cl)C4=CC(=O)[C@@H]5C[C@@H]5[C@]4(C)[C@H]3CC[C@@]21C [CYPROTERONE]
0: HepSE_liver function tests abnormal (Hepatotoxicity [2]) | HepSE_liver disease (Hepatotoxicity [4]) | HepSE_elevated liver function tests (Hepatotoxicity [6]) | HepSE_cholecystitis (Hepatotoxicity [10]) | HepSE_bilirubinemia (Hepatotoxicity [11]) | HepSE_liver fatty (Hepatotoxicity [12]) | HepSE_cholelithiasis (Hepatotoxicity [13])
1: HepSE_hepatic failure (Hepatotoxicity [1]) | HepSE_jaundice (Hepatotoxicity [5]) | HepSE_hepatomegaly (Hepatotoxicity [7]) | HepSE_hepatic necrosis (Hepatotoxicity [8]) | HepSE_hepatitis (Hepatotoxicity [9]) | HepSE_cirrhosis (Hepatotoxicity [14])
6: HepSE_Combined Scores (Hepatotoxicity [3])

NCCS [CYSTEAMINE]
0: HepSE_hepatic failure (Hepatotoxicity [1]) | HepSE_liver function tests abnormal (Hepatotoxicity [2]) | HepSE_Combined Scores (Hepatotoxicity [3]) | HepSE_liver disease (Hepatotoxicity [4]) | HepSE_jaundice (Hepatotoxicity [5]) | HepSE_elevated liver function tests (Hepatotoxicity [6]) | HepSE_hepatomegaly (Hepatotoxicity [7]) | HepSE_hepatic necrosis (Hepatotoxicity [8]) | HepSE_hepatitis (Hepatotoxicity [9]) | HepSE_cholecystitis (Hepatotoxicity [10]) | HepSE_bilirubinemia (Hepatotoxicity [11]) | HepSE_liver fatty (Hepatotoxicity [12]) | HepSE_cholelithiasis (Hepatotoxicity [13]) | HepSE_cirrhosis (Hepatotoxicity [14])
